Laboratory results as given in US5698518A, “Method for regulating inflammation and tumor growth with calmodulin, calmodulin analogues or calmodulin antagonists” (Oklahoma Medical Research Foundation, priority 1994, dated 1997).

Tests used:
[1] = test system: human peripheral blood mononuclear cells (PBMC); test: LPS-induced TNF production by isolated peripheral blood mononuclear cells; assay type: cell-based; conditions: PGE2 10^-7 M, n=4, read-out: inhibition of TNF production by isolated PBMCs
Method: To establish whether the inhibitory effect of the endothelium was exerted directly on monocytes or required an intermediary blood cell, human peripheral blood mononuclear cells (PBMC) were prepared from freshly drawn heparinized blood by density-gradient separation on Ficoll-Hypaque (Mono-Poly Resolving Medium, Flow Laboratories, McLean, Va.). Furmaniak-Kazmierczak, et al., "Protein S enhances C4b binding protein interaction with neutrophil," Blood 81:405-411 (1993). Isolated PBMC were washed three times with RPMI 1640 (Mediatech) and resuspended at a concentration of 3-5×10^6 cells/ml. 200 μl aliquots were added to 24-well tissue culture plates, incubated, and assayed as described with whole blood.
Mononuclear cells (4.47±0.94×10^6 /ml) isolated from fresh whole blood released TNF dose-dependently in response to LPS in a manner similar to whole blood.

[2] = test system: LPS-induced TNF release in whole blood; test: LPS-induced TNF release in whole blood (TNF ELISA); assay type: cell-based, human; conditions: for inhibition of LPS-induced TNF release: 10^-6 M, added directly to whole blood
Method: Immunoreactive TNF was measured using a sandwich ELISA sensitive to ≈0.1 ng/ml TNF. 96-well Immulon IV microtiter plates (Dynatech, Chantilly, Va.) were coated overnight at 4° C. with a monoclonal anti-TNF antibody, TNF 1286 or TNF 1311 (5 μg/ml in TBS, 50 μl per well).
The next morning the ELISA plates were washed three times with TBS with 0.1% (v/v) Tween 20 (Sigma) and blocked for one hour with 1% BSA in TBS. Plates were then washed three times. Plasma samples were diluted 1:5 in 0.1% BSA in TBS, and 50 μl/well pipetted onto the plates and allowed to incubate at 37° C. for one hour. TNF standards were made up by addition of known amounts of recombinant human TNF-α (Upstate Biologicals Inc., Lake Placid, N.Y.) to pooled heparinized normal plasma diluted 1:5 in TBS/BSA. All samples and standards were assayed in duplicate. Plates were washed three times and biotinylated goat anti-TNF antibody or biotinylated monoclonal TNF 1289 (2 μg/ml in 0.1% BSA in TBS, 50 μl/well) was applied and incubated at 37° C. for one hour. Plates were washed three times and streptavidin-alkaline phosphatase (Gibco BRL, Grand Island, N.Y.) (0.025 μg/ml in 0.1% BSA in TBS, 50 μl/well) was applied and incubated at 37° C. for one hour. Following a final four washes, an amplified substrate (Gibco BRL) was applied according to the manufacturer's directions. Plates were read at 492 nm on a microtiter plate reader (Molecular Devices, Palo Alto, Calif.) and values obtained by comparing unknowns to a standard curve using a four-parameter fit. The useful range of this assay was 1-50 ng/ml.
(§1) Blood from healthy volunteers was drawn from the antecubital vein into a heparinized syringe (10 U/ml final; UpJohn, Kalamazoo, Mich.). 24-well culture plates (Costar, Cambridge, Mass.) were coated with 2% (w/v) gelatin (Sigma) and washed three times with Hanks balanced salt solution (HBSS) (Gibco BRL, Gaithersburg, Md.). Only the center eight wells were used to minimize evaporation. Then, 200 μl of blood was pipetted into each well. For comparative experiments involving endothelial cell monolayers, endothelial cells were seeded onto gelatin-coated wells at 3-5×10^5 cells per well 48 hours prior to experimentation. These wells were washed three times with HBSS and heparinized whole blood added as above. In most cases, the same plate would contain wells with and without endothelium for comparison purposes.
(§2) Test reagents suspended in HBSS (8 to 10 μl) were added to the wells immediately after the blood. Plates were incubated at 37° C. in room air/5% CO2 on an orbital shaker at 150 rpm; incubations were four hours unless otherwise noted. The blood then was transferred to microcentrifuge tubes and centrifuged at 500× g for 10 minutes. The resulting platelet-poor plasma was collected and assayed for TNF immediately, as per Example 2 or stored frozen at -70° C. until use.
In most experiments, LPS (from E. coli strain 055:B5, Difco) was used to stimulate TNF release. Other agonists used were zymosan (Sigma, St. Louis, Mo.), muramyl dipeptide (Sigma), recombinant human interferon-γ (Mallinckrodt, Paris, Ky.), and recombinant human interleukin-1β (Collaborative Research, Bedford, Mass.). In some experiments, prostaglandin E2 (PGE2) and the stable prostacyclin analogue, carbacyclin (both from Cayman Chemical, Ann Arbor, Mich.) were added just before the LPS. These were dissolved as a 2.84×10^-3 M stock solution in DMSO and diluted in HBSS; buffer controls with the same concentrations of DMSO were assayed in parallel.

[3] = test system: elastase release in whole blood over endothelial cell monolayer; test: Augmentation of elastase release in whole blood by HUVEC monolayer; assay type: cell-based, human; conditions: whole blood with endotoxin
Method: An assay similar to that described in Example 2 was developed for neutrophil elastase in the same plasma samples (measured as the complex between elastase, and α-1-antitrypsin) using a murine monoclonal antibody (HEL 1076) to elastase as capture and biotinylated murine monoclonal antibody (HAT 1099) as detector. The useful range of this assay was 0.05 to 5 nM complex. These antibodies were obtained by immunizing mice with human neutrophil elastase, human α-1-antitrypsin (Athens Research and Technology, Athens, Ga.) and a complex of both using the method detailed in Example 2. Antibodies were screened for their ability to react with native and complexed antigen. Antibodies were purified from ascites using protein G (Pharmacia, Piscataway, N.J.) affinity chromatography and biotinylated using NHS-LC-biotin (Pierce). In addition to the inhibition of TNF release, calmodulin also augmented elastase release similar to that observed with the endothelial cell monolayer (FIG. 1, authentic calmodulin; FIG. 2, purified endothelial cell calmodulin).
In addition, elastase release in whole blood measured as the complex of elastase with α-1 protease inhibitor (α-1 antitrypsin) was augmented by the presence of an endothelial cell monolayer as shown in FIG. 11 (n=8). […]

[4] = test system: endothelial inhibition of LPS-induced TNF release in whole blood; test: Endothelial (HUVEC) inhibition of LPS-induced TNF release in whole blood, endothelium treated with enzyme inhibitors; assay type: cell-based, human
Method: as §1, §2
Endothelial cells were treated with inhibitors of enzymes responsible for production of prostaglandins and nitric oxide. […]

[5] = test system: TNF release in whole blood; test: TNF release in whole blood evoked by other agonists; assay type: cell-based, human; conditions: 0.3 to 1 μg/ml
Method: as §1, §2
In most experiments, LPS (from E. coli strain 055:B5, Difco) was used to stimulate TNF release. […]

cultured HUVECs = test: Prostaglandin release from cultured HUVECs (competitive enzyme immunoassay); assay type: cell-based, human; conditions: ASA 10^-4 M for 1 hour
Method: Endothelial cells were treated with inhibitors of enzymes responsible for production of prostaglandins and nitric oxide. In each case, endothelial cells were pretreated by addition of the inhibitor to the culture medium for one hour, before the addition of blood and the TNF-provoking agonist (e.g., LPS) to the wells. Acetylsalicylic acid (ASA, aspirin), (Sigma, St. Louis, Mo.), which is an irreversible inhibitor of the cyclooxygenase enzyme, was removed after the incubation by washing the endothelial cells three times with Hanks balanced salt solution (HBSS) before adding the blood. Indomethacin and N^G -nitro-L-arginine methyl ester (L-NAME; Sigma), which are competitive inhibitors of cyclooxygenase, and nitric oxide synthase, respectively, were added to the HBSS wash solution and again directly to the blood as soon as it had been pipetted into the wells, so that the target enzyme would have no opportunity to escape inhibition. With indomethacin (which has been reported to increase TNF release from macrophages by blocking autocrine production of PGE2), controls were run in which indomethacin was added to the blood in the absence of endothelium.
Therefore, endothelial monolayers were treated with ASA (10^-4 M for 1 hour), an irreversible cyclooxygenase inhibitor. ASA attenuated the inhibitory activity, but by less than 40% of the total inhibition. […]

[6] = test system: inhibitory activity of porcine aortic endothelium on TNF release in whole blood; test: TNF release in whole blood over pig aorta segments in situ; assay type: cell-based; conditions: ASA pretreatment of vessel wall
Method: (§3) To exclude the possibility that the inhibitory activity of endothelial monolayers was merely an artifact of tissue culture, experiments were performed using intact endothelium in situ in segments of porcine aorta. Normal farm pigs (Spotted Polland) weighing 30-35 kg were euthanized with pentobarbital and the thoracoabdominal aorta removed aseptically. The harvested aorta was rinsed in HBSS containing penicillin 50 IU/ml and streptomycin 50 μg/ml. The aorta was then opened longitudinally along its dorsal surface. The endothelial cell surface was left intact, or denuded mechanically by scraping gently ten times with a metal spatula. The opened aorta was then clamped into a multi-well plexiglass template device, such that the intimal surface of the aorta formed the bottom of the well. The wells were washed with HBSS and blood added and processed exactly as above for 24 well plates.
(§4) As with cultured endothelial cells, TNF release was inhibited when whole blood was incubated in the presence of an intact aortic endothelial surface as compared to an adjacent mechanically denuded segment of vessel (FIG. 21; n=6).

[7] = test system: elastase release in whole blood over porcine aortic segments; test: Elastase release in whole blood over pig aorta segments in situ; assay type: cell-based; conditions: ASA pretreatment; intact or denuded segment
Method: as §3, §4

[8] = test system: TNF release in whole blood in response to E. coli; test: TNF release in whole blood in response to gentamicin-killed E. coli; assay type: cell-based, human; conditions: data not shown
Method: Whole gentamicin-killed E. coli were examined as another stimulus that probably evokes TNF release by several different pathways; for example, they serve as a phagocytic stimulus and also activate complement components. A single colony of E. coli serotype B7 086a61 (ATCC#33985) on an LB plate was cultured overnight in LB Medium (Difco, Detroit, Mich.). The next morning the cells were washed three times in Hanks balanced salt solution (HBSS) and then resuspended in HBSS to 5.7×10^9 cells per ml. Before addition to blood, bacteria were killed by treatment with gentamicin sulfate (Elkins-Sinn, Cherry Hill, N.J.), 500 μg/ml for one hour. TNF release assays were performed according to procedures given in Example 2.

`CCCCC[C@H](O)/C=C/[C@H]1[C@H](O)CC(=O)[C@@H]1C/C=C\CCCC(=O)O` [PGE2, prostaglandin E2] was tested, and the inhibition at 0.1 µM [1] was 63.9 ± 9.6%, the “inhibition of LPS-induced TNF release” value ([2]; no endothelial cells) was “almost complete suppression” and the inhibition at 0.1 µM ([2]; Homo sapiens, PGE2 10^-7 M, n=12, read-out: inhibition of whole-blood TNF production) was 83.6 ± 2.7%. The “potency relative to carbacyclin (inhibition of LPS-induced TNF release)” value ([2]; whole blood, no endothelial cells) was “at least 10 fold”.
In the case of `CCCCC[C@H](O)/C=C/[C@@H]1[C@H]2C/C(=C/CCCC(=O)O)C[C@H]2C[C@H]1O` [carbacyclin], the “inhibition of LPS-induced TNF release” value ([2]; no endothelial cells) is reported as “almost complete suppression”.
In the case of `COc1ccc2c(c1)c(CC(=O)O)c(C)n2C(=O)c1ccc(Cl)cc1` [indomethacin, Indomethacin], the “effect on endothelial augmentation of elastase release” value [3] is reported as “not changed”, the “effect on inhibitory effect of endothelial cells in suspension on TNF release” value ([4]; endothelial cells in suspension) is reported as “did not block” and the “effect on LPS-induced TNF release in the absence of endothelium” value ([2]; indomethacin added to blood, no endothelium) is reported as “marginally higher TNF release”.
In the case of `COC(=O)[C@@H](N)CCCN=C(N)N[N+](=O)[O-]` [L-NAME, N^G -nitro-L-arginine methyl ester], the “effect on endothelial inhibition of TNF release” value ([4]; L-NAME 10^-4 M) is reported as “No reduction”.
In the case of `CC(=O)N[C@H]1C(O)O[C@H](CO)[C@@H](O)[C@@H]1O[C@H](C)C(=O)N[C@@H](C)C(=O)N[C@H](CCC(=O)O)C(N)=O` (some centres unmarked) [Muramyl dipeptide, muramyl dipeptide], the “TNF release agonist activity alone” value [5] is reported as “weak agonists”.
With `CC(=O)Oc1ccccc1C(=O)O` [ASA, Acetylsalicylic acid] the “effect on endothelial augmentation of elastase release” value [3] was “not changed”, the “PGE2 release from cultured HUVECs after treatment” value (cultured HUVECs; untreated 0.93 nM, 0.2 nM is limit of detection) was < 0.2 nM and the “prostacyclin release from cultured HUVECs after treatment” value (cultured HUVECs; untreated 4.0 nM) was 0.26 nM. The “effect on TNF-inhibitory activity of aortic endothelium” value [6] was “partially reduced” and the “effect on stimulation of elastase release by aortic segments” value [7] was “did not significantly alter”.
Polymyxin B was tested, and the “effect on TNF response to LPS” value ([2]; whole blood, data not shown) was “dose-dependently antagonized” and the “effect on TNF response to E. coli” value [8] was “unaffected”.
